Experimental findings from article PMC2827632 (Biochemistry, 2010) are described below.

The structures appear in SMILES notation.

The target of one experiment is Mtb Lpd R347S (Mycobacterium tuberculosis, UniProt P9WHH9, R347S).
In another experiment the target is Mtb Lpd A181V (Mycobacterium tuberculosis, UniProt P9WHH9, A181V). To be noted: 100 µM.

As for `COc1ccc(C(=O)N2CCC3(CC2)C(=O)N(CC(=O)NCCc2ccc(Cl)cc2Cl)CN3c2ccccc2)c(OC)c1` [compound 5, N-(2,4-dichlorophenethyl)-2-(8-(2,4-dimethoxybenzoyl)-4-oxo-1-phenyl-1,3,8-triazaspiro[4.5]decan-3-yl)acetamide], the “Decrease in potency, R347S vs wild-type” value on Mtb Lpd R347S is listed as “more than 100 fold”. Further, the “Inhibition of A181V Mtb Lpd” value on Mtb Lpd A181V was 10%.
